Test results reported in publication PMC8145107 (Pharmaceutics, 2021).

Tests used:
[1] = system: Salmonella typhimurium TA98; conditions: TA98, without S-9 mix; J2 40, NA49 200, positive controls 1-2 μg/plate
Procedure: To perform the Ames test of J2 and NA49, the number of revertant colonies was counted on each compound-treated plate at the maximum concentration at which the compound was soluble and nontoxic to the S. typhimurium tester strains (Supplementary Material S1). The ratio of the number of revertant colonies in the treated plate to colonies in the vehicle plate. […] For the hERG K^+ channel binding assay of J2 and NA49, the inhibitory activity against the hERG K^+ channel and its ligand was measured using a red fluorescent hERG channel ligand tracer. The final activity was assessed as a decrease in the degree of fluorescence polarization. […]
The test was conducted with maximum concentration at which the compound was
soluble and nontoxic to the S. typhimurium tester strains. #Factor = No. of revertant colonies
of treated plate colonies of vehicle control plate. […]

NCI-H460 cells [2] = assay: MTT viability assay, NCI-H460; assay type: cell-based, human; conditions: 24 h
Procedure: The human NSCLC cell lines of NCI-H460, A549, HCC827, PC9, NCI-H1650, and NCI-H1975 were obtained from the American Type Culture Collection (Rockville, MD, USA). Cells were cultured in RPMI 1640 medium containing 10% FBS, 2 mmol/L L-glutamine, and 100 units/mL of penicillin and streptomycin and maintained at 37 °C in a humidified incubator containing 5% CO2.
Cell viability against gefitinib-, cisplatin-, and NA49-induced toxicity was determined using an MTT (Amersham Pharmacia Biotech) assay in 96-well plates. […] Next, cells were incubated with 100 µL of 5 mg/mL 3-(4,5-dimethylthiazol-2-yl)-2,5-diphenyltetrazolium bromide (Sigma Aldrich, M5655) for 2 h. After the MTT mixture was removed, 100 µL of DMSO was added to each well, and absorbance at 540 nm was measured using an ELISA plate reader (TECAN, Twinfinite PRO).

A549 cells = assay: Cell death by PI staining / flow cytometry, A549; assay type: cell-based, human; conditions: cisplatin 3 µM, Gef 30 µM, alone
Procedure: (§1) Cells were plated in 6-well culture plates at a density of 1 × 10^5 cells/well. Compounds were applied to the cells immediately after seeding. When cells were harvested, cells were washed once with 1× phosphate-buffered saline (PBS), dissociated using Trypsin-EDTA, and centrifuged at 13,000 rpm for 3 min at 4 °C. Next, 1 mL of 1× PBS was added to wash the pellet again. Finally, 1 mL of 1× PBS and 1 μg/mL of propidium iodide (PI) were added to each polystyrene round-bottom tube. Flow cytometric analysis was performed using a FACS flow cytometer (BD Bioscience). To measure cell death, 10^4 cells were counted, and PI-stained cells were analyzed. FACS analysis in accordance with the manufacturer’s instruction. […]
(§2) Table S1. CI values of NSCLC cell lines.
(§3) Cell line Combination drug NA 10 µM NA 20 µM
(§4) CI values were calculated from the data of percent inhibition of cell death by PI staining. Each CI
(§5) value was analyzed by CompuSyn software. […]

NCI-H460 cells [3] = assay: Cell death by PI staining / flow cytometry, NCI-H460; assay type: cell-based, human; conditions: NCI-H460; cisplatin 3 µM, Gef 30 µM, alone
Procedure: as §1, §2, §3, §4, §5

CYP450 3A4 = CYP450 3A4 (Homo sapiens, UniProt P08684); assay: CYP450 enzyme inhibition, 3A4; conditions: 10 μM
CYP450 2C19 = CYP450 2C19 (Homo sapiens, UniProt P33261); assay: CYP450 enzyme inhibition, 2C19; assay type: in vitro ADME; conditions: 10 μM
Procedure: (§6) Permeability was evaluated with a parallel artificial membrane permeability (PAMPA) assay using an artificially generated lipid-infused membrane.

CYP2C9 = CYP2C9 (Homo sapiens, UniProt P11712); assay: CYP450 enzyme inhibition, 2C9; assay type: in vitro ADME; conditions: 10 μM
Procedure: as §6

CYP1A2 = molecular target: T1, CYP1A2 (Homo sapiens, UniProt P05177); assay: in vitro
T1 sequence (P05177 1-516): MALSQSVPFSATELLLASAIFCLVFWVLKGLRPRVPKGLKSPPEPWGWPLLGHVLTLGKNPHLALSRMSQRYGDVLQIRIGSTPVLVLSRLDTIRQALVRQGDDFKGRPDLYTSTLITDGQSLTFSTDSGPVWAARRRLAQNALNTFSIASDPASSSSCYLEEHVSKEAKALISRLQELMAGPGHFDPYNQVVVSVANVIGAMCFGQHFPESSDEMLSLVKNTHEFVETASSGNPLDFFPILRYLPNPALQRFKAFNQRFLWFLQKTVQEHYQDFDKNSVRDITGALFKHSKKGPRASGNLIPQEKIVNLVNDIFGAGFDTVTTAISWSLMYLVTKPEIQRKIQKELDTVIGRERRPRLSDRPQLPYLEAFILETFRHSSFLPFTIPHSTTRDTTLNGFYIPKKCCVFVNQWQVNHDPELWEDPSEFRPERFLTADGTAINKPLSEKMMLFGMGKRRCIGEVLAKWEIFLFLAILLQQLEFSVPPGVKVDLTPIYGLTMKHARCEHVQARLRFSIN

CYP450 2D6 = CYP450 2D6 (Homo sapiens, UniProt P10635); assay: CYP450 enzyme inhibition, 2D6; assay type: in vitro ADME; conditions: 10 μM
Sequence of CYP450 2D6 (P10635 whole entry): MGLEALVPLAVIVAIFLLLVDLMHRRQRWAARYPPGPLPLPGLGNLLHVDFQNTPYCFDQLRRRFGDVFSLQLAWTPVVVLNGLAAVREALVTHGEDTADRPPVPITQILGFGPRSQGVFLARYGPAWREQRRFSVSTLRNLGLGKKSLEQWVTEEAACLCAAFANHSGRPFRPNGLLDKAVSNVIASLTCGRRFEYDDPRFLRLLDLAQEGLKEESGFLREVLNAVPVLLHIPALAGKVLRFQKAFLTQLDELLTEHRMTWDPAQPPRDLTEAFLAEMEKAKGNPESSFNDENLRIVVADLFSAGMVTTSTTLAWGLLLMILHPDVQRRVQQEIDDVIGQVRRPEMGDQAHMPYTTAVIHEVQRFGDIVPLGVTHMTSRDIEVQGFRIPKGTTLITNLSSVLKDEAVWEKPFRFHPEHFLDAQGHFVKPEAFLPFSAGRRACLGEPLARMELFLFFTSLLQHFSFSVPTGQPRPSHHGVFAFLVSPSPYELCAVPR

Sequence of CYP450 3A4 (P08684 whole entry): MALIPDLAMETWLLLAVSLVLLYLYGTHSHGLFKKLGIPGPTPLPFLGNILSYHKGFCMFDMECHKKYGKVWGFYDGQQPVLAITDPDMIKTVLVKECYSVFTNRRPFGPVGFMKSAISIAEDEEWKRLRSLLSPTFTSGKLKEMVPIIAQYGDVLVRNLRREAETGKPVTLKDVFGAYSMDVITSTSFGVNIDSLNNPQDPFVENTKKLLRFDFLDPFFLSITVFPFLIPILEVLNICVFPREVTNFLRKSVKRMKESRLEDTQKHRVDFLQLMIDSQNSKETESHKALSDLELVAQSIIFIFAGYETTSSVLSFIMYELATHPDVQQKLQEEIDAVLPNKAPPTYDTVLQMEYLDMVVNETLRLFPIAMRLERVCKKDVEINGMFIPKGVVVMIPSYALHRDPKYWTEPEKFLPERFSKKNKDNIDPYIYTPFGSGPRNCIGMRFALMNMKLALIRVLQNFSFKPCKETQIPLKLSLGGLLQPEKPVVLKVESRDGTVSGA
Sequence of CYP450 2C19 (P33261 whole entry): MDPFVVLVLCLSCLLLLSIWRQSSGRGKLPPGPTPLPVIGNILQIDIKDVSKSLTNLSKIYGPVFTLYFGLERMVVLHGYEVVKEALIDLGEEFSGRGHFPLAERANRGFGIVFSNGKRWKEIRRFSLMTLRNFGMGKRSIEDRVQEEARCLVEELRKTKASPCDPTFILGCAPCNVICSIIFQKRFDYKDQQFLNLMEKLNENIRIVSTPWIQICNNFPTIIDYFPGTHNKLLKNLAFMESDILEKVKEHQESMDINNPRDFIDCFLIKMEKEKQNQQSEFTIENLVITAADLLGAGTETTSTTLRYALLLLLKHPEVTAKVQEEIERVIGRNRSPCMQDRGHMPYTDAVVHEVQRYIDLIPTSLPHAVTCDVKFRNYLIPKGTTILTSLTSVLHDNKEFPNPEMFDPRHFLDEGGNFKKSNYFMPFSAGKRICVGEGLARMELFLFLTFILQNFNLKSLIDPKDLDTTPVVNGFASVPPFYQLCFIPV
Sequence of CYP2C9 (P11712 whole entry): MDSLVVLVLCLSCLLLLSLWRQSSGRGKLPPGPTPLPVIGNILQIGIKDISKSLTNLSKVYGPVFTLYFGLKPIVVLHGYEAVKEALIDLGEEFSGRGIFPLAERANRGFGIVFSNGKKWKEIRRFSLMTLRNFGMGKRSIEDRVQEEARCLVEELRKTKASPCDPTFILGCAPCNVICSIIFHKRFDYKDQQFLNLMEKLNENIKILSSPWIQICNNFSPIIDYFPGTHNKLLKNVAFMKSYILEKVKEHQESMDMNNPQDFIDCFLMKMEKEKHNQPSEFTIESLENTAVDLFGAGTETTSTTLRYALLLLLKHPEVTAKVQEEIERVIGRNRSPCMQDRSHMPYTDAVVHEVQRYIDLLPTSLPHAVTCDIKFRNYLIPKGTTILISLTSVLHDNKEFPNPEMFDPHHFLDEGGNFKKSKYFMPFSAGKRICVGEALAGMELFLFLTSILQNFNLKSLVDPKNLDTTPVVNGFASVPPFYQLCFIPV

## O=[N+]([O-])c1ccc2c(c1)Cc1ccccc1-2 [2-nitrofluorene, reference compound]
[1]
  Factor (revertant colonies of treated plate/vehicle control plate): 28.9
  Revertant colonies/plate (Mean ± S.D.): 462 ± 24 colonies/plate

## N.N.[Cl][Pt][Cl] [Cisplatin, cisplatin, reference compound]
NCI-H460 cells [2]
  IC50: 11.7 µM
A549 cells
  Cell death: less than 30%
NCI-H460 cells [3]
  Cell death: less than 30%

## COc1cc2ncnc(Nc3ccc(F)c(Cl)c3)c2cc1OCCCN1CCOCC1 [Gef, Gefitinib, reference compound]
A549 cells
  Cell death: less than 30%
NCI-H460 cells [3]
  Cell death: less than 30%

## OCc1ncc2n1-c1ccc(Cl)cc1C(c1ccccc1F)=NC2 [OH-midazolam, reference compound]
CYP450 3A4
  % inhibition of CYP450 3A4, positive control: 92.5%

## COc1ccc2nc([S+]([O-])Cc3ncc(CO)c(OC)c3C)[nH]c2c1 (centres unmarked) [OH-omeprazole, reference compound]
CYP450 2C19
  % inhibition of CYP450 2C19, positive control: 93.2%

## CCCCNC(=O)NS(=O)(=O)c1ccc(CO)cc1 [OH-tolbutamide, reference compound]
CYP2C9
  % inhibition of CYP450 2C9, positive control: 91.7%

## CC(=O)Nc1ccc(O)cc1 [acetaminophen]
CYP1A2
  inhibition at 10 μM: 92.4%

## CN1CC[C@@]23CCCC[C@@H]2[C@@H]1Cc1ccc(O)cc13 [dextrophan, reference compound]
CYP450 2D6
  % inhibition of CYP450 2D6, positive control: 94.0%

## [N-]=[N+]=[N-].[Na+] [sodium azide, reference compound]
[1]
  Factor (revertant colonies of treated plate/vehicle control plate): 4.1
  Revertant colonies/plate (Mean ± S.D.): 441 ± 16 colonies/plate
